# Tests used:
# ABCA1 [1] = assay: ABCA1 expression in HepG2 cells (real time PCR); type: cell-based, human; details: 1 uM, 3 uM and 10 uM, 6 h
# ABCA1 [2] = assay: ABCA1 expression in HaCaT cells (real time PCR); type: cell-based, human; details: HaCaT; 10 uM; 24 h after UV irradiation
# Protocol: […] Twenty four hours after irradiation, the cells were harvested and RNA isolated to assess the expression of LXR-alpha, LXR-beta, ABCA1, TNF-alpha, IL-6, and IL-8 genes. HaCaT cells were cultured in DMEM supplemented with 10% (v/v) fetal bovine serum, penicillin (100 U/mL), streptomycin ([…]) and glutamine (2 mM). […] The expressions of ABCA1, TNF-alpha, IL-6, IL-8, LXR-alpha, and LXR-beta were normalized according to glyceraldehyde-3-phosphate dehydrogenase (GAPDH) expression. The results of three independent assays, carried out in duplicate for each condition, are reported.
# LXR-alpha = target: T1, LXR-alpha (Homo sapiens, UniProt Q13133); assay: LXR-alpha/RXR LRE-luciferase reporter in transfected HEK293T cells; type: cell-based; details: 10 uM, 18 h
# T1 sequence (Q13133 1-447): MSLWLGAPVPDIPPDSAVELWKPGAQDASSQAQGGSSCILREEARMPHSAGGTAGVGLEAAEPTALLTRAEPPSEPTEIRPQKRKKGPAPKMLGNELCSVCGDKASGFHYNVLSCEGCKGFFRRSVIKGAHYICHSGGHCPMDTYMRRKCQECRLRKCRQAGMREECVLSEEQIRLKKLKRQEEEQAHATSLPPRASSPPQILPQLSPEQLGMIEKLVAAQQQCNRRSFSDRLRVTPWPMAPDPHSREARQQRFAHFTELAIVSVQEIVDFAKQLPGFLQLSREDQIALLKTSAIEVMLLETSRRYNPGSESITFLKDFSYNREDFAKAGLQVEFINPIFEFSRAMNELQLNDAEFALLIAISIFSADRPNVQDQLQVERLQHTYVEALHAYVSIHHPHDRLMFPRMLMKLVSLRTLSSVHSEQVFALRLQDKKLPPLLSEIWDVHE
# T1 sequence (P19793 1-462 partner): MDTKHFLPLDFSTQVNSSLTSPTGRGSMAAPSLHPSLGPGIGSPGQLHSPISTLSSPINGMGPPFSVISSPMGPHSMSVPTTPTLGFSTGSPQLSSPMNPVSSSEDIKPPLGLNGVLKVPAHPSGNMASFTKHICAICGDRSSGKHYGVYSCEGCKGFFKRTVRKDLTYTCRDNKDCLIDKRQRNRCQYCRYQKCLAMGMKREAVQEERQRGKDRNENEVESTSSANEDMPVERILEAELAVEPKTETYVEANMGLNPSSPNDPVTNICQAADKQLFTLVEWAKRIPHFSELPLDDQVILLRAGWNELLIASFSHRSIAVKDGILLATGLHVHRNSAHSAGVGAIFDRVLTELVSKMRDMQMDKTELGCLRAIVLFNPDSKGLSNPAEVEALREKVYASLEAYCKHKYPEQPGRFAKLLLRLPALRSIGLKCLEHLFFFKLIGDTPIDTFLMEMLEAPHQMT
# Source text: Since we had previously shown that the beneficial effects of the compounds of the invention are independent of glucocorticoid receptor (GR) activation, we set forth to investigate if they might exert their actions through activation of liver X receptors (LXR). For this purpose we used cultured cells transiently transfected with LXR-alpha, the retinoid X receptor (RXR) and a LXR response element-luciferase reporter (LRE-LUC). A. Human embryonic kidney cells (HEK293T; 5×10^5 cells/well) were cultured in DMEM medium supplemented with 10% (v/v) fetal bovine serum, 100 ug/ml of streptomycin, 100 IU/ml of penicillin and 2 mM glutamine. For the transient transfections, the cell cultures were added with plasmids carrying LXR-alpha (pLXR-alpha; 0.6 ug), the retinoid X receptor (pRXR; 0.2 ug), a LXR response element-luciferase reporter (pRE-LUC; 0.7 ug) and beta-galactosidase gene (pRSV-LacZ; 0.6 ug) as a transfection control, using Lipofectamine 2000 (Invitrogen). […] Compounds III to VI are […] analogs bearing a fluorine atom at C-6. To assess LXR-alpha activation, at the end of the incubation period luciferase activity was measured by use of a luciferase assay system (Promega). The results of three independent assays, carried out in duplicate for each condition, are reported.
# ABCA1 [3] = assay: ABCA1 expression in HL-60 cells (real time PCR); type: cell-based, human; details: 10 uM, 6 h
# Protocol: To investigate the effects of Compounds I and II on the expression of three genes involved in lipid metabolism [fatty acid synthase (FAS); and two ATP-dependent cholesterol and phospholipid transporters, such as ABCA1 and ABCG1], human promyelocytic leukemia cells (HL-60) that endogenously express LXR-alpha and LXR-beta were incubated in the presence of either Comp I or Comp II (10 uM), or GW3965 (1 uM) for 6 h. mRNA levels for FAS, ABCA1 and ABCG1 were determined by real time PCR and results were normalized to GAPDH expression. HL-60 (10^6 cells/well) were cultured in RPMI medium supplemented with 5% (v/v) fetal bovine serum, penicillin (100 IU/mL), streptomycin (100 ug/mL) y cyprofloxacin (0.4 ug/mL). […] To obtain RNA, at the end of the incubation the cells were collected by centrifugation at 1,000 rpm for 2 min, washed with phosphate buffered saline, and lysed in 300 ul TRIZOL (Invitrogen). RNA samples were suspended in […] of RNAse free water, and their concentration determined (NanoDrop spectrophotometer). […] To obtain cDNA, 1 ug of total RNA was denatured by incubating for 5 min at 70° C., before the addition of a mixture containing 0.5 ug oligo-dT primers and 25 ng/ml of random primers (Invitrogen), 1.0 mM dNTPs (Invitrogen), and 200 U M-MLV reverse transcriptase (Promega); after this the mixture was retrotranscribed at 37° C. for 60 min, followed by an incubation at 95° C. for 5 min to inactivate the enzyme. For the real time PCR amplification (Stratagene Thermal Cycler), cDNA samples were diluted 1/5 to 1/10 depending on the target amplification product. Calibration curves were obtained by use of eight successive 1:2 sample dilutions. Amplifications were carried out in a 25 ul final volume (5 ul cDNA sample plus 20 ul of reaction mixture) in the presence of either 3, 4 or 5 mM MgCl2 (depending on the amplified sequence), 0.25 mM dNTPs (Invitrogen), 1.25 U Taq polymerase (Invitrogen), 1 μM of the specific primers according to the target amplification sequence, and 0.025 μl SYBR Green (Roche). […]
Structure (SMILES),induction of ABCA1 expression (ABCA1 [1]),ABCA1 expression versus DMSO-treated cells (ABCA1 [2]),induction of LXR-alpha driven gene expression compared with GW3965 (1 uM) (LXR-alpha),effect on ABCA1 expression (ABCA1 [3])
"CC[C@@H](C(C)C)[C@H](O)[C@@H](O)[C@@H](C)[C@H]1CC[C@H]2[C@@H]3CCC4=CC(=O)CC[C@]4(C)[C@H]3CC[C@]12C [Compound I, (22S,23S)-22,23-dihydroxystigmast-4-en-3-one]",did not induce,marginally induced,within the same range as that observed for GW3965,none of the test compounds significantly affected
"CC[C@@H](C(C)C)[C@H](O)[C@@H](O)[C@@H](C)[C@H]1CC[C@H]2[C@@H]3CCC4=CC(=O)C=C[C@]4(C)[C@H]3CC[C@]12C [Compound II, (22S,23S)-22,23-dihydroxystigmasta-1,4-dien-3-one]",did not induce,marginally induced,within the same range as that observed for GW3965,none of the test compounds significantly affected

# From patent US20190365784A1, “USE OF BRASSINOSTEROID ANALOGS FOR THE TREATMENT OF DERMAL DISORDERS BY SELECTIVELY MODULATING LIVER X RECEPTORS (LXR) AND DERMAL DISEASE TREATMENT BY BRASSINOSTEROID ANALOGS ACTING AS SELECTIVE LIVER X RECEPTOR (LXR) MODULATORS” (CONSEJO NACIONAL DE INVESTIGACIONES CIENTÍFICAS Y TÉCNICAS …, priority 2015, published 2019)
